Data as given in patent US20150025120A1, “PYRAZOLE-ALCOHOL COMPOUNDS AND PHARMACEUTICAL USE THEREOF” (JAPAN TOBACCO INC., priority 2013, published 2015).

Assays:
tissue PDH activity = test: Ex vivo PDH activation assay (liver and epididymal adipose tissue after oral administration); format: in vivo, Sprague-Dawley rats; settings: 3 mg/kg, rat, mean ± standard deviation
Experimental: The action of test compound on tissue PDH activity was evaluated. NADH production was detected via p-iodonitrotetrazolium violet (INT)-coupled system to measure PDH activity.
Normal male Sprague-Dawley rats were randomly allocated to the vehicle group and the test compound groups. The vehicle (0.5% aqueous methylcellulose solution, 5 mL/kg) or the test compound was orally administered to the rats. At 5 or 20 hr after administration, the rats were anesthetized with an intraperitoneal injection of sodium pentobarbital (60 mg/kg), and liver slices and epididymal adipose tissues were collected.
(§1) To the liver slices were rapidly added 9 volumes of ice-cold homogenization buffer (0.25 mol/L sucrose, 5 mmol/L tris(hydroxymethyl)aminomethane hydrochloride (pH 7.5), 2 mmol/L EDTA), and the mixtures were homogenized using a Polytron homogenizer. The homogenates were centrifuged at 600×g, 4° C. for 10 min to obtain the supernatant. The supernatants (1 mL) were centrifuged at 16,000×g, 4° C. for 10 min to collect the precipitates. The precipitates were washed by resuspension in the homogenization buffer (1 mL) and centrifuged in the same manner. The precipitates were frozen with liquid nitrogen and stored at −80° C. as the liver mitochondrial fraction.
as §1, with “adipose tissues” for “liver slices”, “3” for “9”, “of an” for “of”, “buffer,” for “buffer (0.25 mol/L sucrose, 5 mmol/L tris(hydroxymethyl)aminomethane hydrochloride (pH 7.5), 2 mmol/L EDTA),”, “supernatants” for “supernatants (1 mL)”, “adipose tissue” for “liver”
The mitochondrial fractions were thawed and suspended with the sample buffer (0.25 mol/L sucrose, 20 mmol/L tris(hydroxymethyl)aminomethane hydrochloride (pH 7.5), 50 mmol/L potassium chloride, and 1 mL/L 4-(1,1,3,3-tetramethylbutyl)phenyl-polyethylene glycol (Triton X-100)). Active PDH activity (PDHa activity) and total PDH activity (PDHt activity) were measured to evaluate the PDH activity. For the measurement of the PDHt activity, equal amounts of the mitochondrial suspension and the activation buffer (0.25 mol/L sucrose, 20 mmol/L tris(hydroxymethyl)aminomethane hydrochloride (pH 7.5), 50 mmol/L potassium chloride, 1 mL/L Triton X-100, 4 mmol/L calcium chloride, 40 mmol/L magnesium chloride, 10 mmol/L sodium dichloroacetate) were mixed, and the mixtures were incubated at 37° C. for 10 min. Forty microliters of the mitochondrial suspensions diluted with a sample buffer were added to a 96-well microplate for activity measurement and blank measurement. Then 180 μL of the reaction mixture (0.056 mmol/L potassium phosphate buffer (pH 7.5), 5.6 mmol/L DL-carnitine, 2.8 mmol/L NAD, 0.22 mmol/L thiamin pyrophosphate, 0.11 mmol/L Coenzyme A, 1.1 mL/L Triton X-100, 1.1 mmol/L magnesium chloride, 1.1 g/L bovine serum albumin, 0.67 mmol/L INT, 7.2 μmol/L phenazine methosulfate, 28 mmol/L sodium oxamate) was added to each well, and then 20 μL of 50 mmol/L sodium pyruvate for activity measurement or water for blank measurement were added. The mixtures were incubated at room temperature under shading. The absorbances at 500-750 nm, which were attributable to reduction of INT, the final electron acceptor, were measured using a microplate reader over time and the changes in the absorbance were calculated. The PDH activity was calculated by subtraction of the change in absorbance of the blank well from that of the activity measurement well. The percentage of the PDHa activity to the PDHt activity was calculated and taken as an index of the PDH activation.

[1] = molecular target: T1, hERG current (hERG-transfected HEK293 cells) (Homo sapiens, UniProt Q12809); test: hERG whole cell patch clamp test; format: cell-based
T1 construct: host or cells: HEK293
T1 sequence (Q12809 whole entry): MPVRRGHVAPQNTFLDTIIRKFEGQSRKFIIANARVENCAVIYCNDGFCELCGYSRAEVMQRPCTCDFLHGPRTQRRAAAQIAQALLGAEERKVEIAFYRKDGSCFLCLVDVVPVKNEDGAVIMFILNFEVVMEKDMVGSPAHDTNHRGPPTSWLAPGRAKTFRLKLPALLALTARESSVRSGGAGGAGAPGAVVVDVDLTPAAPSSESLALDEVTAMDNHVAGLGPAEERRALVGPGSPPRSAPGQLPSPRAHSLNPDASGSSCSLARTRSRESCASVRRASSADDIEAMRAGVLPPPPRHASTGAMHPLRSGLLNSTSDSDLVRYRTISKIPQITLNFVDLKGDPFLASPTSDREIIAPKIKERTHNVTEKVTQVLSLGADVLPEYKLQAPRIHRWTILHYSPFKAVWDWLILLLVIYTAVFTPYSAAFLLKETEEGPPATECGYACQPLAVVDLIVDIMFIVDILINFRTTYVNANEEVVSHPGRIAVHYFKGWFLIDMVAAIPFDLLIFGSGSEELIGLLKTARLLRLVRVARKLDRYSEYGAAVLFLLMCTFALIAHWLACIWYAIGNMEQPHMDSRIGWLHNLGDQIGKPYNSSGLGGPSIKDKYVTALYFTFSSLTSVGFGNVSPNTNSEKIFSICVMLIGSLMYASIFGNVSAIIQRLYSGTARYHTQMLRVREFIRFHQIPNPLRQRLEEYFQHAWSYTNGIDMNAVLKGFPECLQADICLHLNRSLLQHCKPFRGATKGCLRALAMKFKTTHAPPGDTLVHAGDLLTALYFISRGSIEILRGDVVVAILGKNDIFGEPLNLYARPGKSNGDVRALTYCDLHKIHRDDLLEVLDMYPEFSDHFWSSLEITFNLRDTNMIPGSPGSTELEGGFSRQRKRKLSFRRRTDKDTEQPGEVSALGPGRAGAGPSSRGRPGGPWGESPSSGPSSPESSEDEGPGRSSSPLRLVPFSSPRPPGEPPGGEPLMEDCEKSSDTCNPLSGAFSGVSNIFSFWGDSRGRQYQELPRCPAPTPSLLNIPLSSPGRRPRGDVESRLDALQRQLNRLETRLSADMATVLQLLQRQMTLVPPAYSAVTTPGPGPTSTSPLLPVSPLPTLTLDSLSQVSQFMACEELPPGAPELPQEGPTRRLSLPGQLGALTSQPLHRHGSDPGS
Experimental: Using human ether-a-go-go related gene (hERG)-transfected HEK293 cells (Cytomyx Limited), an influence on hERG current was examined according to the whole cell patch clamp technique. The hERG-transfected HEK293 cells were passaged using a CO2 incubator (BNA-111, TABAI ESPEC CORP.) under the set conditions of 37° C., 5% CO2, saturated humidity. Culture containers used were Collagen Type I Coated 75 cm^2 flask (4123-010, AGC TECHNO GLASS CO., Ltd.) and Collagen Type I Coated 35 mm culture dish (4000-010, AGC TECHNO GLASS CO., Ltd.). The culture medium used was E-MEM (Eagle Minimum Essential Medium (Earle's Salts, Nikken biomedical laboratory) added with 10% FCS (Fetal calf serum, BioWest, L.L.C.) and 1% MEM Non-Essential Amino Acids Solution (NEAA, Invitrogen Corporation). Geneticin for the selection of hERG gene expressing cells was added thereto to a concentration of 400 μg/mL. As the cells for the measurement, 3×10^4 hERG-transfected HEK293 cells were plated on a 35 mm culture dish 4 to 7 days before measurement of the hERG current. The culture dish produced for the measurement contained the above-mentioned culture medium without geneticin (Invitrogen Corporation).
The highest evaluation concentration of each compound was determined from the highest concentration at which precipitation was not found in the standard extracellular fluid (NaCl: 140 mmol/L, KCl: 2.5 mmol/L, MgCl2: 2 mmol/L, CaCl2: 2 mmol/L, HEPES: 10 mmol/L, glucose: 10 mmol/L (adjusted to pH 7.4 with Tris-base)). As the application method, each solution to be applied was ejected from a Y-tube having a tip diameter of about 0.25 mm, which was adjacent (about 2 mm) to the cells, and applied to the cells. The ejection rate was about 0.4 mL/min.
The experiment was performed at room temperature under a phase contrast microscope. The 35 mm culture dish plated with the cells was set on a measurement apparatus, and the standard extracellular fluid was continuously applied to the cells from the Y-tube. A glass electrode for the measurement was filled with an intracellular fluid (Potassium Gluconate: 130 mmol/L, KCl: 20 mmol/L, MgCl2: 1 mmol/L, ATP-Mg: 5 mmol/L, EGTA: 3.5 mmol/L, HEPES: 10 mmol/L (adjusted to pH 7.2 with Tris-base)). A conventional whole cell patch clamp method was applied to the cells, and the maintenance electric potential was set to −80 mV. Under a fixed electric potential, the whole cell current was amplified by an amplifier for patch clamp (AXOPATCH-200B, Axon Instruments, Inc.), and the data was loaded into a computer (IMC-P642400, Intermedical Co., Ltd.) using a data acquisition analysis software (pCLAMP 9.2, Axon Instruments, Inc.).
The measurement of the hERG current was performed in the following two steps. In both cases, the hERG current was initiated by giving a command potential (maintenance electric potential −80 mV, prepulse+20 mV, 1.5 sec, test-pulse −50 mV, 1.5 sec).
Step (1): The above-mentioned command potential was given at 0.1 Hz for 2 min.
Step (2): The above-mentioned command potential was subjected to P/3 subtraction of pCLAMP 9.2 to remove leak current. This was repeated three times and an average thereof was taken as hERG current.
Subsequent to step (1), Step (2) was performed (about 3 min), and the maximum tail current obtained by applying a test-pulse to the hERG current obtained by the method of step (2) was taken as hERG current value. Hereafter, the operations of (1) and (2) were alternately repeated until completion of the experiment and the hERG current value was measured.
Stable hERG current value was recorded three times (about 10 min), and the standard extracellular fluid was instantaneously exchanged with each application fluid. The hERG current value was measured three times (about 10 min) in the same manner during perfusion of the application fluid, and the current value obtained by the 3rd measurement was taken as hERG current value after perfusion of the application fluid. […]

[2] = adipose tissue, 5 hr after oral administration
[3] = adipose tissue, 20 hr after oral administration
[4] = liver, 5 hr after oral administration
[5] = liver, 20 hr after oral administration

SMILES | PDHa activity (% PDHt activity) (tissue PDH activity; [2]) | PDHa activity (% PDHt activity) (tissue PDH activity; [3]) | PDHa activity (% PDHt activity) (tissue PDH activity; [4]) | PDHa activity (% PDHt activity) (tissue PDH activity; [5]) | hERG inhibition rate (%) ([1]; concentration 3 μmol/L) | hERG inhibition rate (%) ([1]; concentration 30 μmol/L)
CC(C)(C(N)=O)n1cc(-c2cc(F)cc3c2-c2ccccc2[C@]3(O)C(F)(F)F)cn1 [compound (D), 2-{4-[(9R)-2-Fluoro-9-hydroxy-9-(trifluoromethyl)-9H-fluoren-4-yl]-1H-pyrazol-1-yl}-2-methylpropanamide] | 43 ± 7 % PDHt activity | 24 ± 3 % PDHt activity | 41 ± 15 % PDHt activity | 20 ± 1 % PDHt activity | 9.4% | 67.5%
CC(C)(O)COc1cc(-c2cnn(CCO)c2)c2c(c1)[C@@](O)(C(F)(F)F)c1ccccc1-2 [compound (C), (9R)-4-[1-(2-Hydroxyethyl)-1H-pyrazol-4-yl]-2-(2-hydroxy-2-methylpropoxy)-9-(trifluoromethyl)-9H-fluoren-9-ol] | 53 ± 4 % PDHt activity | 28 ± 7 % PDHt activity | 44 ± 5 % PDHt activity | 13 ± 3 % PDHt activity | 11.5% | 69.0%
